Converted amounts (≈) assume the structure as drawn.
Tests used:
[1] = Antiproliferative activity against human U373 cells assessed as reduction in cell viability; assay type: functional, cell-based; conditions: U373 MG
[2] = test system: Hs 683; assay: Cytotoxicity against human Hs 683 cells assessed as reduction in cell viability by MTT assay; assay type: functional, cell-based
[3] = test system: MCF7; assay: Cytotoxicity against human MCF7 assessed as reduction in cell viability incubated for 24 hrs by MTT assay; assay type: functional, cell-based; conditions: MCF7, 24 h
[4] = test system: A549; assay: Cytotoxicity against human A549 cells assessed as inhibition of cell growth measured after 72 hrs by MTT assay; assay type: functional, cell-based; conditions: A549, 72 h
[5] = test system: SK-MEL-28; assay: Cytotoxicity against human SK-MEL-28 cells assessed as reduction in cell growth; assay type: functional, cell-based
[6] = test system: PC-3; assay: Cytotoxicity against human PC-3 cells assessed as inhibition of cell growth; assay type: functional, cell-based
[7] = test system: AGS; assay: Cytotoxicity against human AGS cells assessed as reduction in cell viability incubated for 48 hrs by MTT assay; assay type: functional, cell-based
[8] = test system: SNU1; assay: Cytotoxicity against human SNU1 cells assessed as inhibition of cell growth measured after 72 hrs by cell titer glo assay; assay type: functional, cell-based; conditions: SNU1, 72 h
[9] = test system: KB; assay: Cytotoxicity against human KB cells assessed as cell growth inhibition; assay type: functional, cell-based
[10] = test system: HCT-116; assay: Cytotoxicity against human HCT-116 cells assessed as reduction in cell viability incubated for 24 hrs by MTT assay; assay type: functional, cell-based; conditions: HCT-116, 24 h
[11] = test system: P388; assay: Cytotoxicity against mouse P388 cells assessed as reduction in cell growth; assay type: functional; conditions: read-out: ED50 (the source's name)
[12] = test system: A-375; assay: Cytotoxicity against human A-375 cells assessed as reduction in cell growth incubated for 48 hrs by MTT assay; assay type: functional, cell-based; conditions: A-375, 48 h
[13] = test system: A549; assay: Antiproliferative activity against human A549 cells assessed as cell growth inhibition measured after 72 hrs by MTT assay; assay type: functional, cell-based; conditions: A549, 72 h
[14] = test system: HepG2; assay: Cytotoxicity against human HepG2 cells assessed as cell growth inhibition measured after 48 hrs by MTT assay; assay type: functional, cell-based; conditions: HepG2, 48 h
[15] = test system: HCT-116; assay: Cytotoxicity against human HCT-116 cells assessed as reduction in cell growth incubated for 48 hrs by MTT assay; assay type: functional, cell-based; conditions: HCT-116, 48 h
[16] = test system: K562; assay: Cytotoxicity against human K562 cells assessed as reduction in cell viability incubated for 24 hrs by MTT assay; assay type: functional, cell-based; conditions: K562, 24 h
[17] = test system: SW 1116; assay: Antiproliferative activity against human […] cells assessed as reduction in cell viability incubated for 24 hrs by MTT assay; assay type: functional, cell-based; conditions: SW 1116, 24 h
[18] = test system: A549; assay: Antiproliferative activity against human A549 cells assessed as cell growth inhibition incubated for 48 hrs by MTT assay; assay type: functional, cell-based; conditions: A549, 48 h
[19] = test system: HepG2; assay: Antiproliferative activity against human HepG2 cells assessed as inhibition of cell growth incubated for 48 hrs by MTT based colorimetric assay; assay type: functional; conditions: HepG2, 48 h
[20] = test system: HCT-116; assay: Antiproliferative activity against human HCT-116 cells assessed as inhibition of cell growth incubated for 48 hrs by MTT based colorimetric assay; assay type: functional; conditions: HCT-116, 48 h
[21] = test system: A-375; assay: Antiproliferative activity against human A-375 cells assessed as inhibition of cell growth incubated for 48 hrs by MTT based colorimetric method; assay type: functional; conditions: A-375, 48 h
[22] = test system: P388; assay: Cytotoxicity against mouse P388 cells assessed as inhibition of cell growth; assay type: functional, cell-based
[23] = test system: K562; assay: Cytotoxicity against human K562 cells assessed as cell growth inhibition after 48 hrs by MTT assay; assay type: functional, cell-based; conditions: K562, 48 h
[24] = Antiproliferative activity against human U373 cells assessed as inhibition of cell growth measured after 72 hrs by CTG assay; assay type: functional, cell-based; conditions: U373 MG
[25] = test system: SK-MEL-28; assay: Cytotoxicity against human SK-MEL-28 cells assessed as inhibition of cell growth incubated for 72 hrs by MTT assay; assay type: functional, cell-based; conditions: SK-MEL-28, 72 h
[26] = test system: A549; assay: Antiproliferative activity against human A549 cells assessed as cell growth inhibition; assay type: functional, cell-based
[27] = test system: MCF7; assay: Antiproliferative activity against human MCF7 cells assessed as reduction in cell viability incubated for 48 hrs by MTT assay; assay type: functional, cell-based; conditions: MCF7, 48 h
[28] = test system: HepG2; assay: Antiproliferative activity against human HepG2 cells assessed as reduction in cell viability incubated for 72 hrs by CCK-8 assay; assay type: functional, cell-based; conditions: HepG2, 72 h
[29] = biological target: Indoleamine 2,3-dioxygenase 1 (Homo sapiens, UniProt P14902); assay: Inhibition of IDO1 in human HeLa cells; assay type: cell-based
[30] = biological target: Tryptophan 2,3-dioxygenase (Homo sapiens, UniProt P48775); assay: Inhibition of TDO (unknown origin) expressed in HEK293 cells; assay type: cell-based
[31] = test system: HepG2; assay: Cytotoxicity against human HepG2 cells assessed as reduction in cell viability incubated for 24 hrs by MTT based colorimetric assay; assay type: functional; conditions: HepG2, 24 h
[32] = test system: A549; assay: Cytotoxicity against human A549 cells assessed as reduction in cell growth incubated for 5 days by MTT assay; assay type: functional, cell-based; conditions: A549, 120 h
[33] = test system: A549; assay: Cytotoxicity against human A549 cells assessed as reduction in cell growth; assay type: functional, cell-based
[34] = test system: Hs 683; assay: Cytotoxicity against human Hs 683 cells; assay type: functional, cell-based
[35] = test system: MCF7; assay: Cytotoxicity against human MCF7 cells assessed as reduction in cell viability by SRB assay; assay type: functional, cell-based
[36] = test system: SK-MEL-28; assay: Cytotoxicity against human SK-MEL-28 cells assessed as reduction in cell viability measured after 24 hrs by MTT assay; assay type: functional, cell-based; conditions: SK-MEL-28, 24 h
[37] = Cytotoxicity against human U373 cells assessed as reduction in cell viability after 24 hrs by MTT assay; assay type: functional, cell-based; conditions: U373 MG
[38] = test system: HCT-116; assay: Cytotoxicity against human HCT-116 cells assessed as cell growth inhibition incubated for 24 hrs by MTT based colorimetric assay; assay type: functional; conditions: HCT-116, 24 h

Tryptophan 2,3-dioxygenase, sequence (P48775 whole entry): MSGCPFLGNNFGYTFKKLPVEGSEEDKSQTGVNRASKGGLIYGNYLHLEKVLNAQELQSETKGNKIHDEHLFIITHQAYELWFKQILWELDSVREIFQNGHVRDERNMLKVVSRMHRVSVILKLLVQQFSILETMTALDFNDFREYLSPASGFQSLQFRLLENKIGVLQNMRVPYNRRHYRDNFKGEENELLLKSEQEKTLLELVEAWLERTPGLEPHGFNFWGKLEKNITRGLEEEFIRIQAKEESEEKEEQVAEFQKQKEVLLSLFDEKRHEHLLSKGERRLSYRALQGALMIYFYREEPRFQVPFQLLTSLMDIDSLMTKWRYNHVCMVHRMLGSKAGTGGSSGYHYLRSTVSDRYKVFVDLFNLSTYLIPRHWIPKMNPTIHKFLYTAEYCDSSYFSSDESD
Indoleamine 2,3-dioxygenase 1, sequence (P14902 whole entry): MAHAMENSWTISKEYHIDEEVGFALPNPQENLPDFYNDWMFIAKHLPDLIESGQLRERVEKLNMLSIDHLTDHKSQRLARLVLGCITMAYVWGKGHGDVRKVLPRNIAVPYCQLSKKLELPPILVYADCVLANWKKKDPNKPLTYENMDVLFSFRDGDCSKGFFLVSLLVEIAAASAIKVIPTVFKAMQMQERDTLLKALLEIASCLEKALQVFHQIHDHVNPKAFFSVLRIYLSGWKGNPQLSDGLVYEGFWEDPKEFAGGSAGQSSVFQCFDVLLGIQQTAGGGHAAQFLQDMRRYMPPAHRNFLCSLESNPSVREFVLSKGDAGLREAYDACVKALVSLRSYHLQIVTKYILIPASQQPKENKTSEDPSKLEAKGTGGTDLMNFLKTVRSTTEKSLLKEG

O=C1N[C@H]2c3[nH]c4ccccc4c3C[C@@H]1n1c2nc2ccccc2c1=O
IC50 [1]: 50 µM | IC50 [2]: 50 µM | IC50 [3]: 43 µM | IC50 [4]: 39 µM | IC50 [5]: 73 µM

COc1ccc2c(=O)n3c(nc2c1)-c1[nH]c2ccccc2c1CC3
IC50 [6]: 19.4 µM

O=C(C[C@H]1NCCC[C@@H]1O)Cn1cnc2ccccc2c1=O
IC50 [7]: 0.17 µg/mL (≈ 0.564 µM) | IC50 [8]: 0.05 µg/mL (≈ 0.166 µM)

C=CC(C)(C)[C@@]12C[C@H]3c4nc5ccccc5c(=O)n4[C@H](C)C(=O)N3[C@@H]1N(C(C)=O)c1ccccc12
IC50 [9]: 107 µM

O=Cc1c(-c2nc3ccccc3c(=O)[nH]2)[nH]c2ccccc12
IC50 [10]: 12.1 µM

CO[C@@]1(C)NC(=O)[C@@H](C[C@]2(O)c3ccccc3N3C(=O)[C@H](C)N[C@@H]32)n2c1nc1ccccc1c2=O
EC50 [11]: 13.8 µg/mL (≈ 29 µM)

CC(C)[C@@H]1NC(=O)[C@@H](C[C@]2(O)c3ccccc3N3C(=O)[C@H](C)N[C@H]32)n2c1nc1ccccc1c2=O
IC50 [12]: 169 µM | IC50 [13]: 0.54 µM | IC50 [14]: 53 µM | IC50 [15]: 123 µM

C[C@H]1C(=O)N2c3ccccc3[C@@]3(O)C[C@@H](n4cnc5ccccc5c4=O)C(=O)N1[C@@H]23
IC50 [16]: 0.035 µM | IC50 [17]: 0.034 µM

CC(=O)O[C@H](c1nc2ccccc2c(=O)n1[C@@H]1C[C@@]2(OC1=O)c1ccccc1N1C(=O)C(C)(C)N(O)[C@H]12)C(C)C
IC50 [18]: 0.54 µM | IC50 [19]: 58 µM | IC50 [20]: 114 µM | IC50 [21]: 108 µM

O=C(c1cnc2ccccc2c1)c1nc2ccccc2c(=O)[nH]1
IC50 [22]: 2.3 µg/mL (≈ 7.63 µM)

COc1ccc2c(=O)n3ccc4c5ccccc5[nH]c4c3nc2c1
IC50 [6]: 22.1 µM

C[C@@]12NC(=O)[C@@H](CC13c1ccccc1N1C(=O)CN[C@@H]13)n1c2nc2ccccc2c1=O (stereo partly drawn)
IC50 [23]: 50 µM

CC1(C)C(=O)N2c3ccccc3[C@@]3(C[C@@H](n4cnc5ccccc5c4=O)C(=O)O3)[C@@H]2N1C=O
IC50 [24]: > 100 µM | IC50 [25]: > 100 µM | IC50 [26]: > 100 µM | IC50 [27]: 91 µM | IC50 [28]: 235 µM

CN(C)CCc1ccc2nc3n(c(=O)c2c1)C1C=CC(F)=CC1C3=O (stereo not drawn)
IC50 [29]: 0.02 µM | IC50 [30]: 0.06 µM

C[C@@H]1N[C@H]2N(C1=O)c1ccccc1[C@@]2(O)C[C@@H]1C(=O)N[C@H](C)c2nc3ccccc3c(=O)n21
EC50 [11]: 16 µg/mL (≈ 35.9 µM)

C=CC(C)(C)[C@@]12C[C@@]3(O)c4nc5ccccc5c(=O)n4[C@H](C)C(=O)N3[C@@H]1N(C(C)=O)c1ccccc12
IC50 [9]: 61.4 µM

CC(C)[C@H]1NC(=O)[C@@H](C[C@]2(O)c3ccccc3N3C(=O)[C@H](C)N[C@H]32)n2c1nc1ccccc1c2=O
IC50 [31]: 115 µM | IC50 [32]: > 100 µM | IC50 [33]: 0.54 µM | IC50 [34]: > 100 µM | IC50 [35]: > 100 µM | IC50 [36]: > 100 µM | IC50 [37]: > 100 µM | IC50 [38]: 277 µM

CN1CCN(CCc2ccc3nc4n(c(=O)c3c2)C2C=CC(F)=CC2C4=O)CC1 (stereo not drawn)
IC50 [29]: 0.02 µM | IC50 [30]: 0.09 µM

Reference: ChEMBL document CHEMBL5385851, “Natural quinazolinones: From a treasure house to promising anticancer leads” (Eur J Med Chem, 2023)
